Assay in all cases: DTP human tumour cell line panel, 48 h
Assay [1] has as its system NCI-H522 lung.
For assay [2], the system named is NCI-H23 lung.
The test system of assay [3] is 786-0 renal.
The test system of assay [4] is NCI-H460 lung.
In assay [5] the test system is MCF7 breast.
Assay [6] has as its system HS 578T breast.
For assay [7], the system named is OVCAR-4 ovarian.
In assay [8] the test system is HL-60(TB) leukemia.

Where “and” joins values, the source holds several entries; their conditions need not be identical. Equal entries are not always repeated.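 Cultured in 96-well plates, cells were exposed to test compound for 48 hours across five concentrations. GI50 marks 50% less growth. The concentration for full growth arrest is given as TGI.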

`CC[C@H](C)[C@H](NC(=O)[C@H]1CCCCN1C)C(=O)N(C)[C@H](C[C@@H](OC(C)=O)c1nc(C(=O)N[C@@H](Cc2ccccc2)C[C@H](C)C(=O)O)cs1)C(C)C`: the GI50 (in general, the concentration giving 50% growth inhibition) in assay [1] was 0.347 nM and < 1.65 nM; in assay [2], 0.887 nM and 1.65 nM; in assay [3] it was 0.943 nM and 1.65 nM; in assay [4] it was 0.369 nM and 1.65 nM; in assay [6], 1.01 nM and 1.65 nM; in assay [8], 0.394 nM and < 1.65 nM. Besides, the concentration for total growth inhibition (TGI) (commonly the concentration giving total growth inhibition) in assay [1] was 13.3 nM and < 1.65 nM; in assay [2], above 16500 nM; in assay [3], above 16500 nM; in assay [4] it was above 16500 nM; in assay [5], above 16500 nM; in assay [6] it was above 16500 nM. Further, the total growth inhibition concentration (TGI) is above 16500 nM in assay [7]; 2.67 nM and < 1.65 nM in assay [8].

Take `COc1ccc(/C(C#N)=C2C=C/C(=N/O)c3ccccc3\2)cc1`: the 50% growth inhibitory concentration (GI50) in assay [1] is 89.1 nM; in assay [2] it was 403 nM; in assay [3], 457 nM; in assay [4] it was 310 nM; in assay [5] it was 181 nM; in assay [6] it was 258 nM. Moreover, the figures for the GI50 in assay [7] and in assay [8] were 927 nM and 254 nM, respectively. The TGI in assay [1] amounted to 838 nM; in assay [2], 14400 nM; in assay [3], 15000 nM; in assay [4] it was 1230 nM; in assay [5], 14100 nM; in assay [6], 6330 nM. The concentration for total growth inhibition (TGI) in assay [7] came to 39100 nM; in assay [8], 688 nM.

With `O=C1Cc2cc(C(=O)NC3C[C@H]4CC[C@@H](C3)N4S(=O)(=O)CC3CCN(CCCC(F)(F)F)CC3)c(Cl)cc2N1` (stereo partly drawn), the GI50 in assay [1], in assay [2], in assay [3], in assay [4], in assay [5] and in assay [6] was above 100000 nM in each case. Further, the GI50 in assay [7] and in assay [8] was above 100000 nM throughout. For the same compound, the concentration for total growth inhibition (TGI) in assay [1], in assay [2], in assay [3], in assay [4], in assay [5] and in assay [6] was above 100000 nM each time. Also, the total growth inhibition concentration (TGI) in assay [7] and in assay [8] was above 100000 nM throughout.

Turning to `Cc1cc(N2CCN(C)CC2)n2nc(-c3ccc(Cl)cc3)nc2n1`, the TGI in assay [1], in assay [2], in assay [3], in assay [4], in assay [5] and in assay [6] was above 100000 nM in each case. For the same compound, the concentration for total growth inhibition (TGI) in assay [7] and in assay [8] was above 100000 nM each time.

For the compound `O=C1/C=C/[C@@H](O)[C@@H]2C[C@@H](O)C[C@H]2/C=C/CCC[C@H](C(F)(F)F)O1`, the concentration for 50% growth inhibition (GI50) is 191 nM in assay [1]; 285 nM in assay [2]; 126 nM in assay [3]; 9540 nM in assay [4]; 89.6 nM in assay [5]; 347 nM in assay [6]. The concentration for 50% growth inhibition (GI50) was 139 nM in assay [7] and 243 nM in assay [8]. Also, the total growth inhibition concentration (TGI) was 515 nM in assay [1]; 4170 nM in assay [2]; 469 nM in assay [3]; above 100000 nM in assay [4]; 813 nM in assay [5]; above 100000 nM in assay [6]. For the same compound, the total growth inhibition concentration (TGI) in assay [7] is above 100000 nM; in assay [8], 605 nM.

Take `COC(=O)[C@H]1CCCN1C(=O)[C@H]1CCCN1C(=O)[C@H](Cc1c[nH]c2ccccc12)NC(=S)Nc1cc(C(F)(F)F)cc(C(F)(F)F)c1`: the GI50 in assay [1] was 4490 nM; in assay [2], 7220 nM; in assay [3], 13800 nM; in assay [4], 3460 nM; in assay [5], 2990 nM; in assay [6], 6100 nM. Also, the GI50 in assay [7] is 6490 nM; in assay [8], 4190 nM. Besides, the total growth inhibition concentration (TGI) in assay [1] is 77200 nM; in assay [2], above 100000 nM; in assay [3], 83000 nM; in assay [4] it was above 100000 nM; in assay [5] it was above 100000 nM; in assay [6], above 100000 nM. Besides, the concentration for total growth inhibition (TGI) in assay [7] was above 100000 nM; in assay [8], 57200 nM.

As to `COc1ccc(N(C)c2nc(N)nc3sc4c(c23)CCCC4)cc1`, the GI50 in assay [1], in assay [2], in assay [3], in assay [4], in assay [5] and in assay [6] was below 10 nM in each case. Besides, the 50% growth inhibitory concentration (GI50) in assay [7] and in assay [8] was below 10 nM in each case. The TGI in assay [2] came out at 20800 nM; in assay [3], 13200 nM; in assay [4] it was 4190 nM; in assay [5], 14800 nM; in assay [6], 10300 nM; in assay [7] it was 15300 nM. Also, in assay [8], the TGI was 10.1 nM.

On to `CN(CC(=O)N(Cc1ccc(C2CCCCC2)cc1)c1ccc(C(=O)O)cc1)S(=O)(=O)c1c(F)c(F)c(F)c(F)c1F`, for which the GI50 in assay [1] is 1770 nM; in assay [2] it was 1920 nM; in assay [3] it was 2280 nM; in assay [4], 3330 nM; in assay [5], 1650 nM; in assay [6], 2470 nM. The GI50 in assay [7] is 1810 nM; in assay [8], 2080 nM. The concentration for total growth inhibition (TGI) in assay [1] is 3650 nM; in assay [2], 3810 nM; in assay [3], 5220 nM; in assay [4], 10400 nM; in assay [5] it was 3480 nM; in assay [6], 6040 nM. For the same compound, the TGI came to 3480 nM in assay [7] and 4480 nM in assay [8].

Regarding `CCCCCCCCCCCC[n+]1ccc2ccccc2c1`, the concentration for 50% growth inhibition (GI50) in assay [1] is 410 nM; in assay [2] it was 646 nM; in assay [3], 1490 nM; in assay [4], 1690 nM; in assay [5], 937 nM; in assay [6], 1540 nM. Besides, the GI50 in assay [7] is 486 nM; in assay [8], 267 nM. In addition, the TGI worked out at 1880 nM in assay [1]; 3090 nM in assay [2]; 2930 nM in assay [3]; 3270 nM in assay [4]; 2880 nM in assay [5]; 3880 nM in assay [6]. The TGI was 2330 nM in assay [7] and 954 nM in assay [8].

These data come from PubChem BioAssay (NCI).
